Earlier results, collected in US7713673B2, “Fixing liquid, toner fixing method, toner fixing device, image forming method, and image forming apparatus” (priority 2005, dated 2010).

Conditions: acute oral toxicity; given in brackets as a material property of the component

In order of rising LD50:
1. CCCCCCCCCCCC(=O)OCC [ethyl laurate]  5000 mg/kg
2. CCOCCOC(=O)CCC(=O)OCCOCC [diethoxyethyl succinate]  5000 mg/kg
3. CC(O)CCO (stereo not shown) [1,3-butanediol]  10000 mg/kg
4. CC(C)COC(=O)CCCCC(=O)OCC(C)C [diisobutyl adipate]  12800 mg/kg
5. CCCCOC(=O)CCCCCCCCC(=O)OCCCC [dibutyl sebacate]  12800 mg/kg
6. CCO [ethanol]  15000 mg/kg
7. CC(O)CO (stereo not shown) [propylene glycol]  15000 mg/kg
